Measurements as given in patent publication US8993718B2, “Methods and compositions for detecting and modulating O-glycosylation” (President and Fellows of Harvard College, priority 2007, dated 2015).
“Also recorded” adds a separate entry of the source. Non-standard residues stand in square brackets, D forms with d. Primed or numbered codes have the meaning given here. No end group written: not given here. *: point of attachment. FITC = O=C1OC2(c3ccc(O)cc3Oc3cc(O)ccc32)c2ccc(NC(=S)*)cc21; Aha′ = not defined here

Experiments:
Format in all cases: biochemical
ppGalNAcT2 = ppGalNAcT2 (Homo sapiens, UniProt Q10471); experiment: Protease protection assay for ppGalNAcT2
Description: (§1) There are multiple isoforms of the enzyme polypeptide N-acetylgalactosaminyltranferases (ppGalNAcTs). Activity of ppGalNAcTs are illustrated in FIG. 14. Using assay methods as described above, peptide substrates for ppGalNAcTs were prepared and used to assay to identify modulators of ppGalNAcTs activity. Peptide substrates EPGPTEAPK (SEQ ID NO:25) and EDAVTPGPK (SEQ ID NO:26) were prepared (see FIG. 15) and utilized to assay for modulators of the enzymes. Each peptide substrate include a proteinase K cleavage site. The identified compound SEQ ID NO:25 is a general substrate for ppGalNAcTs and identified compound SEQ ID NO:26 is a selective substrate for the enzyme ppGalNAcT1. Assays were run and alterations in the rate and/or amount of cleavage by proteinase K was determined. […] The difference in cleavage permitted use of the assay to identify compounds that inhibit glycosylation of the substrate by ppGalNAcTs. Additional inhibitory compounds identified using the assay include Compound 24 and Compound 27 (see Table 1).
(§2) It was determined that the assay could also be used to identify isoform selective inhibitors. […] The presence of the inhibitor disrupted crystal growth of the ppGalNAcT2.

ppGalNAcT1 = target: T1, ppGalNAcT1 (Homo sapiens, UniProt Q10472); experiment: Protease protection assay for ppGalNAcT1
T1 sequence (Q10472 1-559): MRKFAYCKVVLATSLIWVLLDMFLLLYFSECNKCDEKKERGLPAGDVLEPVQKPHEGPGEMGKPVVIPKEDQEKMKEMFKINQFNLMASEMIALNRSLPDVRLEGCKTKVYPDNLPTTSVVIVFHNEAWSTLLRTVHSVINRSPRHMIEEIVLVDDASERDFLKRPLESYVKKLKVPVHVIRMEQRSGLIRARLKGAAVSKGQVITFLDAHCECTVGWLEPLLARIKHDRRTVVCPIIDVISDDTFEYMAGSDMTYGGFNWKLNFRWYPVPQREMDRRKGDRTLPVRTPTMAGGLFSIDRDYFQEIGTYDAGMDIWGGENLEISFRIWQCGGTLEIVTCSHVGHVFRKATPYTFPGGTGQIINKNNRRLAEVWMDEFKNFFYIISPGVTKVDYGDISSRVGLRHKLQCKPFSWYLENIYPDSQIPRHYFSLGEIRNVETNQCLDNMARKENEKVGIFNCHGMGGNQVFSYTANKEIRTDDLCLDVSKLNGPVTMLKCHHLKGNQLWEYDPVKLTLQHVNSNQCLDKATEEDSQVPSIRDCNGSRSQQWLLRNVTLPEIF
Description: as §1, §2

ppGalNAcTs = experiment: Protease protection assay for ppGalNAcTs (general)
Description: as §1

[1] = target: T2, O-Linked N-acetylglucosaminyltransferase (OGT) (Homo sapiens, UniProt O15294); experiment: Glycosylation of CK2-derived polypeptide substrates by OGT, quantified by LC/MS
T2 sequence (O15294 1-1046): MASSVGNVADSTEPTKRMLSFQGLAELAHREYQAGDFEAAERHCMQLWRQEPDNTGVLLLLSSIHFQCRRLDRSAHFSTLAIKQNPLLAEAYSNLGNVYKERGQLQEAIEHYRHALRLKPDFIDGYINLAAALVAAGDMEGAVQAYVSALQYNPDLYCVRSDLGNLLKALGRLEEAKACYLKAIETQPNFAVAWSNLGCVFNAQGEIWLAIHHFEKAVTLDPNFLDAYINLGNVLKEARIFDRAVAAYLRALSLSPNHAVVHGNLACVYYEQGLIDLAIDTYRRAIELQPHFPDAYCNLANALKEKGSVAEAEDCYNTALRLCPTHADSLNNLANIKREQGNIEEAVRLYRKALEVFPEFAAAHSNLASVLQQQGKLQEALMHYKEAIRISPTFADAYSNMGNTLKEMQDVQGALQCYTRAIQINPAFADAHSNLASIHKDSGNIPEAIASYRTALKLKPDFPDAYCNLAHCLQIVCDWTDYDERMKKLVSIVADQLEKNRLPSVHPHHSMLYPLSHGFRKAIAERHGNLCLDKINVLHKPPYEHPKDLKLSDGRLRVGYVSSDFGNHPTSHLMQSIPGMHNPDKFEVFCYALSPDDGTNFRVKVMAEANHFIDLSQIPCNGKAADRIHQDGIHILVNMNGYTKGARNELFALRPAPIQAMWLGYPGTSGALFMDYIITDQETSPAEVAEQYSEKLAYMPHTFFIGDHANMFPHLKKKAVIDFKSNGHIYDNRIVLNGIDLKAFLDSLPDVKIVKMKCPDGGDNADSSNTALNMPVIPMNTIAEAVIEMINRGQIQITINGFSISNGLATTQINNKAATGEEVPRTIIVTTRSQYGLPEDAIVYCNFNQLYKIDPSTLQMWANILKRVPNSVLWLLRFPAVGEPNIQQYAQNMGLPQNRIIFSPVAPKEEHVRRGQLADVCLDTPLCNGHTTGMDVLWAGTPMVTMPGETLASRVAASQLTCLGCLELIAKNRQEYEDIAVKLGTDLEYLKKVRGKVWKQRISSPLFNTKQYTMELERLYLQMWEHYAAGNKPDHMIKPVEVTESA
Description: To address the first requirement, a panel of polypeptides was synthesized based on a truncated version of the CKII polypeptide [CKII peptide PGGSTPVSSNAMM (SEQ ID NO:20)]. The polypeptide was modified from the native sequence in several ways. First, a fluorescein was installed on the N-terminus during synthesis. Second, a lysine was added to the C-terminus so that a second dye or quencher could be installed by reaction with the appropriate N-hydroxysuccinimidyl ester. These modifications allowed two different FRET approaches. The first approach required the installation of a coumarin derivative on the polypeptide. The second required installation of a quencher molecule, which measured total fluorescence intensity. (See Examples 2 and 3). Finally, the residues on either side of the glycosylated serine of the truncated CK2 polypeptide were changed to phenylalanine, leucine or arginine to introduce proteolytic cleavage sites for common proteases (such as trypsin, chymotrypsin and thermolysin) that were not present in the native sequence. It was reasoned that cleavage adjacent to the glycosylation site would yield the largest difference in the rate of proteolysis between glycosylated and native polypeptides. This series of polypeptides was synthesized and screened for OGT activity using by LC/MS. Peak integration (measured at 445 nm) was used to quantitative products and reactants and mass spectrometry was used to confirm peak identity. The results are presented in Table 2 and some of the peptides (peptide 4.1, 4.4, and 4.5 top to bottom) are illustrated in FIG. 2.
All polypeptides were purchased from Tufts University core facility (Boston, Mass.). The mass of crude product was verified and the polypeptides were labeled under the following conditions: Polypeptide was dissolved in 250 mM NaHCO3 buffer, pH 8.2 at a 5 mM concentration and the appropriate NHS-Ester (0.5 eq) was dissolved in DMSO (a volume of 1/10 of the aqueous buffer was used). The DMSO solution was quickly added to the peptide and the reaction proceeded at room temperature for 30 minutes. This was repeated 2 more times (four more times for polypeptide 4.10). The reaction was monitored by LC/MS. LCMS conditions for polypeptides 4.1-4.8—Agilent Eclipse 5 μm XD8-C8 column, 0→100% CH3CN+0.1% formic acid over 20 minutes. LCMS conditions for polypeptides 4.9-4.10—Agilent Eclipse 5 μm XD8-C8 column, 0→100% CH3CN+0.1% NH4OH over 20 minutes. Each polypeptide was purified by preparative HPLC. Conditions for polypeptides 4.1-4.8 were: —Phenomonex Luna C18 5 μm column, 0→100% CH3CN+0.1% TFA over 40 minutes. Conditions for polypeptides 4.9-4.10 were: —Phenomonex Luna C18 5 μm column, 0→100% CH3CN+0.1% NH4OH over 40 minutes. Products were confirmed by LC/MS. Preparative Glycosylation of Labeled Polypeptides: Purified FRET labeled polypeptides were added (20-50 μM final concentration) to assay buffer (50 mM Tris, 20 mM CaCl2, 0.05% Tween-20, 0.05% NP-40, pH=7.8), 200 μM UDP-GlcNAc, 0.05 units of alkaline phosphatase, and 5 μM OGT. Reactions were monitored using LCMS: conditions for polypeptides 4.1-4.8—Agilent Eclipse 5 μm XD8-C8 column, 10→60% CH3CN+0.1% formic acid over 20 minutes. LCMS conditions for polypeptides 4.9-4.10—Agilent Eclipse 5 μm XD8-C8 column, 10→60% CH3CN+0.1% NH4OH over 20 minutes, and when complete were purified using the same column and conditions. Polypeptides 4.1-4.8 were quantitated by absorption at 492 nm using an extinction coefficient of 86,000 cm^−1M^−1; polypeptide 4.9 was quantitated by absorption at 530 nm using an extinction coefficient of 26,000 cm^−1M^−1; polypeptide 4.10 was quantitated by absorption at 530 nm using an extinction coefficient of 52,000 cm^−1M^−1. Fluorescence Resonance Energy Transfer (FRET)-Peptide Approach #1

Sequence of ppGalNAcT2 (Q10471 whole entry, canonical isoform): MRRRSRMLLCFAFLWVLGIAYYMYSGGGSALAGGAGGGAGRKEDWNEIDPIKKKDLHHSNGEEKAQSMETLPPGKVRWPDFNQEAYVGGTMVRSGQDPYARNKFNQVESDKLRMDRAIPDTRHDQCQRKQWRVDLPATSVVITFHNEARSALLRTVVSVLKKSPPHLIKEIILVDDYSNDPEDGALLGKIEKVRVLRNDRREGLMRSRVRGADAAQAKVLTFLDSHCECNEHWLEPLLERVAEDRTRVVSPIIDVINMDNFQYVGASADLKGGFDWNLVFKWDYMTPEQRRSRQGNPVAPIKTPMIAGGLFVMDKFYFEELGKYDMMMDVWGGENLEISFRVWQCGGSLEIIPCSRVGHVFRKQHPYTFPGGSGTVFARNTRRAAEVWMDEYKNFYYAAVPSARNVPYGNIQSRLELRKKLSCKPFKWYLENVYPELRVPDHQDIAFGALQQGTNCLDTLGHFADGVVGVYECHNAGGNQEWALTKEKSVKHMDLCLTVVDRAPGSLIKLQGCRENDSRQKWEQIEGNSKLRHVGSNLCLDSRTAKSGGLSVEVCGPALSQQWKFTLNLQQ

Molecule: O=C(O)CCCN1C(=O)C(O)=C(C(=O)/C=C\c2ccccc2)C1c1ccccc1 (centres unmarked) [Compound 24]
- inhibition of ppGalNAcT2 (% glycosylation, FIG. 18) (ppGalNAcT2): inhibits
- inhibition of ppGalNAcT1 (% glycosylation, FIG. 18) (ppGalNAcT1): inhibits
- inhibition of ppGalNAcTs (ppGalNAcTs): inhibitory; also recorded: inhibitors

Molecule: O=C1NC(=O)N(Cc2ccco2)C(=O)/C1=C\c1ccco1 [Compound 25]
- isoform selectivity ppGalNAcT2 vs ppGalNAcT1 (ppGalNAcT2; FIG. 18B): more selective inhibitor for ppGalNAcT2 than for ppGalNAcT1; also recorded: more selectively inhibits ppGalNAcT2 than ppGalNAcT1

Molecule: O=C1NC(=S)NC(=O)C1=C/C=C\c1ccco1 [Compound 26]
- inhibition of ppGalNAcTs (ppGalNAcTs): inhibitors

Molecule: O=C(O)CCCCCn1c(SCC(=O)c2ccc(O)c(O)c2)nc2ccsc2c1=O [Compound 27]
- inhibition of ppGalNAcTs (ppGalNAcTs): inhibitory; also recorded: inhibitors

Molecule: FITC(Aha)STPVSSANMK ({FITC}-[Aha′]STPVSSANMK; reading uncertain; also: printed as FITC(Aha)STPVSSANMK) [Polypeptide 4.1]
- relative glycosylation rate ([1]; FIG. 2, natural (wild-type) sequence set as reference): 100%
- Relative rate of glycosylation ([1]; OGT, LC/MS peak integration at 445 nm, relative to wt polypeptide 4.1): 1
